From US20100075917A1, “THIONUCLEOSIDES AND PHARMACEUTICAL APPLICATIONS” (priority 2006, published 2010)
Where two headings read alike, the source gives them in different places.

Tests used:
[1] = tested on: human CEM-SS T lymphoma cells; test: Measurement of the intracellular concentrations of 2′-deoxyribonucleotides (dNTP); format: cell-based; details: 24 hours; for activity at 50 µM: 1 at 50 μM
Experimental: The protocol adopted for performing this test (Roy, B.; Beuneu, C.; Roux, P.; Buc, H.; Lemaire, G.; Lepoivre, M. Simultaneous determination of pyrimidine or purine deoxyribonucleoside triphosphates using a polymerase assay. Anal. Biochem., 1999, 269, 403-409) consists in culturing human CEM-SS T lymphoma cells in the presence of the test compounds. The concentrations of dNTP and in particular of dATP are measured after 24 hours of incubation. dATP is the nucleoside triphosphate whose concentration decreases the most during tests with standard ribonucleotide reductase inhibitors such as hydroxyurea, which was used as control.
The quantification is related to the number of live cells counted after staining with trypan blue or related to the initial number of cells (approximately two million). It is measured as a percentage relative to a control manipulation.
The effects of compound 1 at 50 μM on the concentrations of 2′-deoxynucleoside 5′-triphosphates (dNTP) necessary for DNA synthesis are calculated from the dNTP concentrations measured after 24 hours and determined in pmol of dNTP/million cells. The percentages are expressed as a percentage of the control with an average of four controls, taking the counts into account, and are compared with that of an anticancer agent, hydroxyurea (HU), tested at a concentration of 63 μM.

[2] = tested on: L1210 cell line (mouse lymphoma); test: Incorporation of tritiated thymidine; format: cell-based; details: L1210 cells
Experimental: These tests are performed on the L1210 cell line (mouse lymphoma) according to a published protocol (Lepoivre M., Flaman J.-M., Bobé P., Lemaire G., Henry Y. J. Biol. Chem., 1994, 269, 21891-21897). The wells are inoculated (10 000 cells per well) and, after culturing for 72 hours, [^3H]thymidine and the test compound are added to the culture medium. After incubation for 8 hours, the DNA is separated from the other cell constituents and the amount of labeled thymidine incorporated is quantified and compared with a control (without compound).
The effects of compound 1 at 50 μM and 200 μM, respectively, on the concentrations of tritiated thymidine incorporated are expressed as a percentage of the control.

human CEM cells = test: Cytotoxicity (MTT) on CEM cells; format: cell-based; details: for CC50: read-out: CC50 CEM; for EC50: Tables 4 and 6, CEM cells, some values 'then plateau'
Experimental: (§1) The cytotoxic effect of a compound is studied on human CEM cells and MCF-7 mammary carcinoma cells that are or are not resistant to gemcitabine, which is an anticancer nucleoside used in chemotherapy.
(§2) The cytotoxicity (CC50) was estimated by measuring the reduction of 3-(4,5-dimethylthiazol-2-yl)-2,5-diphenyltetrazolium bromide (MTT), which is converted into insoluble violet formazan. To do this, 100 000 cells (human CEM-SS or MCF-7 lines) are inoculated per well in 100 μl of culture medium, in 96-well microtitration plates. After 24 hours, the test products are added in 100 μl and incubation is continued for 48 to 72 hours. MIT is then added in a proportion of 20 μl of a solution at 5 mg/ml in PBS. Three hours later, 100 μl of a DMF/acetic acid/HCl/SDS (sodium dodecyl sulfate) solution are added. After 3 hours at 37° C., the absorbance of the formazan is measured at 590 nm and compared with that of the untreated control.

[3] = tested on: MCF-7 mammary carcinoma cells; test: Cytotoxicity (MTT) on MCF-7 cells; format: cell-based, human; details: Homo sapiens; for CC50: MCF7, read-out: CC50 MCF-7
Experimental: as §1, §2

[4] = tested on: MCF-7* (MCF-7 mammary carcinoma cells resistant to gemcitabine); test: Cytotoxicity (MTT) on gemcitabine-resistant MCF-7 cells; format: cell-based, human; details: listed as printed twice per table
Experimental: as §1, §2
Compounds 1 and 3 to 8 corresponding to formula (II) above; compound 2 corresponding to the non-silyl compound, it corresponds to formula (II) above in which R1 represents CH2CH2CH(CH3)2 and was also tested to observe a possible effect of the silicon. These compounds were evaluated for their cytotoxicity on human CEM cells and MCF-7 mammary carcinoma cells resistant (MCM-7*) or non-resistant (MCF-7) to gemcitabine, which is an anticancer nucleoside used in chemotherapy.

[5] = tested on: L1210/0 murine leukemia cells; test: Cytotoxic effect on L1210/0 cells; format: cell-based; details: Tables 5 and 7, L1210/0 cells
[6] = tested on: FM3A/0 murine mammary carcinoma cells; test: Cytotoxic effect on FM3A/0 cells; format: cell-based; set-up: unit not given beside the values; details: Tables 5 and 7, FM3A/0 cells
human Molt4/C8 cells = test: Cytotoxic effect on Molt4/C8 cells; format: cell-based; details: Tables 5 and 7, Molt4/C8 cells
human CEM T4 lymphocytes = test: Cytotoxic effect on CEM T4 lymphocytes; format: cell-based; set-up: unit not given beside the values; details: Tables 5 and 7, CEM cells
HeLa cells = test: Cytotoxic effect on HeLa cells; format: cell-based; set-up: unit not given beside the values; details: Tables 5 and 7, HeLa cells
HIV-1 = test: Anti-HIV-1 effect in CEM cells; format: cell-based; details: Human immunodeficiency virus 1, CCRF-CEM
Experimental: (§3) The evaluation test is described in Roy, B.; Chambert, S.; Lepoivre M.; Aubertin, A.-M.; Balzarini, J.; Décout, J.-L., Deoxyribonucleoside 2′- or 3′-mixed disulfides: prodrugs to target ribonucleotide reductase and/or to inhibit HIV reverse transcription. J. Med. Chem. 2003, 46, 2565-2568.
(§4) The toxicity and the antiviral activities were measured at different concentrations, and their evolution as a function of the concentration makes it possible to evaluate: • the concentration at which 50% of the cells are dead in the absence of virus (CC 50) for each of the test compounds, from the change in absorbance at 540 nm of formazan as a function of the concentration of test compound, • the concentration of compound that leads to a 50% reduction in the activity of viral reverse transcriptase (EC 50). This concentration is determined from the curve representing the change in the percentage of “remaining reverse transcriptase” activity (defined as being the ratio of the activity of the reverse transcriptase in the presence of the test compound to that of the untreated cells) as a function of the concentration of test compound.
(§5) EC50: concentration required to afford 50% protection to the CEM cells against the cytopathogenicity of HIV;

HIV-2 [7] = test: Anti-HIV-2 effect in CEM cells; format: cell-based; details: Human immunodeficiency virus 2, CCRF-CEM, read-out: EC50 HIV-2
Experimental: as §3, §4, §5

HIV-2 [8] = test: Anti-HIV-2 effect in CEM/TK− cells; format: cell-based; details: Human immunodeficiency virus 2, CEM-TK(-); Third Series; CEM cells having no thymidine kinase activity
Experimental: as §3, §4, §5
• Effect in CEM not expressing thymidine kinase activity (CEM/TK^−, cells having no thymidine kinase activity).

[9] = Cytotoxic concentration in CEM cells (antiviral tests); format: cell-based, human; details: human; First and Second Series, second table; viability of CEM cells
Experimental: as §4
CC50: cytotoxic concentration or concentration required to reduce the viability of the CEM cells by 50%.

Moloney sarcoma virus = test: Inhibition of transformation of mouse embryo C3H/3T3 cells induced by Moloney sarcoma virus; format: cell-based; set-up: MIC (minimum inhibitory concentration): unit not given here; details: for EC50: C3H/3T3, read-out: EC50 (effective concentration 50%); for MIC (minimum inhibitory concentration): C3H/3T3 cells, a second bound is given in brackets for some compounds
Excerpt: 2.2. Inhibitory Effect on the Transformation of Mouse Embryo C3H/3T3 Cells Induced by Moloney Sarcoma Virus (Model of Infection with HIV)

[10] = Homo sapiens, MCF7, MCF-7 resistant to gemcitabine
[11] = First and Second Series, second table, read-out: EC50 HIV-1
[12] = Third Series, read-out: EC50 HIV-1
[13] = First and Second Series, second table, CEM cells

Row | SMILES | CC50 (human CEM cells; Homo sapiens, CCRF-CEM) | CC50 [3] | cytotoxic effect, L1210/0 [5] | cytotoxic effect, FM3A/0 [6] | cytotoxic effect, Molt4/C8 (human Molt4/C8 cells) | cytotoxic effect, CEM (human CEM T4 lymphocytes) | cytotoxic effect, HeLa (HeLa cells) | EC50 (HIV-1; [11]) | EC50 (HIV-1; [12]) | EC50 (HIV-2 [8]) | CC50 [9] | also measured
1 | C[Si](C)(C)CCSC1=C[C@@H](CO)O[C@H]1n1ccc(=O)[nH]c1=O [Compound 1, 2′,3′-Didehydro-2′,3′-dideoxy-2′-(2-trimethylsilyl)ethylthiouridine] | 156 µM | 69 µM | – | – | – | – | – | – | – | – | – | activity at 50 µM ([1]; read-out: dATP concentration, % of control): 50%; activity at 50 µM ([1]; read-out: dCTP concentration, % of control): 42%; activity at 50 µM ([1]; read-out: dGTP concentration, % of control): 31%; activity at 50 µM ([1]; read-out: dTTP concentration, % of control): 85%; decrease of the incorporation of tritiated thymidine into the DNA ([2]; 50 μM): 38%; tritiated thymidine incorporated as a percentage of the control ([2]; 50 μM): 62%; decrease of the incorporation of tritiated thymidine into the DNA ([2]; 200 μM): 86%; tritiated thymidine incorporated as a percentage of the control ([2]; 200 μM): 14%
2 | Cc1cn([C@@H]2O[C@H](CO)C=C2SCC[Si](C)(C)C)c(=O)[nH]c1=O [Compound 3] | 13 µM | 40 µM | – | – | – | – | – | – | – | – | – | EC50 [4, 10]: 37 µM; EC50 ([4]; MCF-7 resistant to gemcitabine): 41 µM
3 | Cc1cn([C@@H]2O[C@H](CO)C=C2S(=O)(=O)CC[Si](C)(C)C)c(=O)[nH]c1=O [Compound 7, 2′,3′-Didehydro-2′,3′-dideoxy-2′-(2-trimethylsilyl)ethylthiothymidine sulfone] | 63 µM | 120 µM | – | – | – | – | – | – | – | – | – | –
4 | O=c1ccn([C@@H]2O[C@H](CO)C=C2SSC(Cl)(Cl)Cl)c(=O)[nH]1 [Compound 13, 2′,3′-didehydro-2′,3′-dideoxyuridin-2′-yl trichloromethyl disulfide] | – | – | – | – | – | – | – | – | – | – | – | EC50 ([3]; MCF7, Table 4, MCF-7): 194 µM; EC50 [4, 10]: 177 µM; EC50 ([4]; MCF-7 resistant to gemcitabine): 194 µM
5 | Cc1cn([C@H]2CC(SSCCCCCCO)[C@@H](CO)O2)c(=O)[nH]c1=O (stereo partly shown) [Compound 18] | – | – | 44 ± 1 | ≧500 | 66 ± 9 | 187 ± 1 | 56 ± 8 | 10.3 ± 5.7 µM | 22.5 ± 3.5 µM | > 50 µM | 107 ± 7 µM | EC50 (human CEM cells; Homo sapiens, CCRF-CEM): 152 µM; EC50 (HIV-1; read-out: EC50 HIV-1, First and Second Series, first table): 4 µM; EC50 (HIV-2 [7]; First and Second Series, first table, CEM cells): 6.5 ± 0.7 µM; EC50 (HIV-2 [7]; [13]): 11.7 ± 2.9 µM; EC50 (HIV-2 [7]; Third Series, CEM cells): 17.5 ± 11 µM; EC50 (Moloney sarcoma virus): 8.3 ± 2.3 µM; MIC (minimum inhibitory concentration) (Moloney sarcoma virus): >100
6 | C=CCSS[C@H]1C[C@H](n2cc(C)c(=O)[nH]c2=O)O[C@@H]1CO [Compound 20, 3′-deoxythymidin-3′-yl allyl disulfide] | – | – | 43 ± 5 | 299 ± 45 | 34 ± 6 | 128 ± 18 | 40 ± 7 | 12.5 ± 3.5 µM | 17.5 ± 3.5 µM | > 50 µM | 53 ± 7 µM | EC50 (human CEM cells; Homo sapiens, CCRF-CEM): 48 µM; EC50 (human CEM cells): 46 µM; EC50 (HIV-2 [7]; [13]): 15 ± 7 µM; EC50 (HIV-2 [7]; Third Series, CEM cells): 20 ± 7 µM; EC50 (Moloney sarcoma virus): 2.2 ± 0.3 µM; MIC (minimum inhibitory concentration) (Moloney sarcoma virus): 100
7 | Cc1cn([C@H]2C[C@H](SSCCN)[C@@H](CO)O2)c(=O)[nH]c1=O.Cl [Compound 27, 3′-deoxythymidin-3′-yl 2-aminoethyl disulfide hydrochloride] | – | – | 65 ± 9 | >500 | 163 ± 41 | 437 ± 71 | >100 | 27.5 ± 3.5 µM | 20 µM | 150 µM | > 250 µM | EC50 (HIV-2 [7]): 27.5 ± 3.5 µM
8 | NC(=O)NO [Hydroxyurea, hydroxyurea, reference compound] | – | – | – | – | – | – | – | – | – | – | – | activity at 63 µM ([1]; Hydroxyurea control, 63 μM, read-out: dTTP concentration, % of control): 51%
